Test results reported in the NIST ThermoML archive (doi:10.1016/j.jct.2006.03.015).

What was measured:
[1] = Crystal; visual observation
[2] = mn = molality of the nth substance listed, in mol/kg; conditions: 101 kPa, Liquid; for apparent molar heat capacity: Flow calorimetry

CC(=O)N[C@@H](CCC(N)=O)C(N)=O [(S)-2-acetamidopentanediamide]
Conditions | Normal melting temperature [°C]
[1] | 192.4

CC(=O)N[C@@H](CCCCN)C(N)=O.Cl [(S)-2-acetamido-6-aminohexanamide hydrochloride]
Conditions | Normal melting temperature [°C]
[1] | 144.4

CC(=O)N[C@@H](CCCCN)C(N)=O.Cl [(S)-2-acetamido-6-aminohexanamide hydrochloride] + O
[2]
Conditions | apparent molar heat capacity [J/K/mol] | mass density [kg/m3]
288.15 K, m1 = 0.02301 | 333.4 | 1000.28
288.15 K, m1 = 0.02858 | 336.3 | 1000.57
288.15 K, m1 = 0.0372 | 339.9 | 1001.01
288.15 K, m1 = 0.04378 | 339.8 | 1001.34
288.15 K, m1 = 0.05396 | 339.8 | 1001.86
288.15 K, m1 = 0.06411 | 343.1 | 1002.37
288.15 K, m1 = 0.07273 | 342 | 1002.8
288.15 K, m1 = 0.08089 | 341.3 | 1003.21
288.15 K, m1 = 0.08886 | 340.4 | 1003.6
288.15 K, m1 = 0.0972 | 343.1 | 1004.02
298.15 K, m1 = 0.02795 | 377.8 | 998.439
298.15 K, m1 = 0.03712 | 377.9 | 998.893
298.15 K, m1 = 0.04507 | 379.4 | 999.283
298.15 K, m1 = 0.05411 | 379.1 | 999.729
298.15 K, m1 = 0.06514 | 378.6 | 1000.27
298.15 K, m1 = 0.07363 | 379 | 1000.68
298.15 K, m1 = 0.08347 | 378.8 | 1001.16
298.15 K, m1 = 0.08995 | 379 | 1001.47
313.15 K, m1 = 0.02397 | 404.5 | 993.394
313.15 K, m1 = 0.03035 | 411.1 | 993.703
313.15 K, m1 = 0.03705 | 406.4 | 994.027
313.15 K, m1 = 0.04583 | 409.4 | 994.449
313.15 K, m1 = 0.05213 | – | 994.754
313.15 K, m1 = 0.05469 | 404 | –
313.15 K, m1 = 0.05752 | – | 995.015
313.15 K, m1 = 0.06361 | 405.8 | 995.306
313.15 K, m1 = 0.06804 | 408 | 995.516
313.15 K, m1 = 0.07802 | 406.1 | 995.99
328.15 K, m1 = 0.02685 | 429 | 986.984
328.15 K, m1 = 0.03581 | 428 | 987.412
328.15 K, m1 = 0.04352 | 428.9 | 987.778
328.15 K, m1 = 0.05273 | 429.2 | 988.207
328.15 K, m1 = 0.06308 | 431.9 | 988.699
328.15 K, m1 = 0.07041 | 431.9 | 989.042
328.15 K, m1 = 0.08088 | 432.4 | 989.527
328.15 K, m1 = 0.0877 | 433.2 | 989.846

CC(=O)N[C@@H](CCC(N)=O)C(N)=O [(S)-2-acetamidopentanediamide] + O
[2]
Conditions | apparent molar heat capacity [J/K/mol] | mass density [kg/m3]
288.15 K, m1 = 0.03981 | 353.8 | 1000.96
288.15 K, m1 = 0.04349 | 350.3 | 1001.13
288.15 K, m1 = 0.0507 | 353.7 | 1001.46
288.15 K, m1 = 0.05943 | 355.1 | 1001.86
288.15 K, m1 = 0.06967 | 356.4 | 1002.33
288.15 K, m1 = 0.07857 | 350.8 | 1002.75
288.15 K, m1 = 0.08453 | 356.6 | 1003.03
288.15 K, m1 = 0.09265 | 354.1 | 1003.38
288.15 K, m1 = 0.1008 | 353.9 | 1003.78
298.15 K, m1 = 0.04537 | 377.9 | 999.104
298.15 K, m1 = 0.05783 | 383.7 | 999.659
298.15 K, m1 = 0.06765 | 378 | 1000.1
298.15 K, m1 = 0.08263 | 379.9 | 1000.77
298.15 K, m1 = 0.09722 | 382.3 | 1001.41
298.15 K, m1 = 0.1055 | 382.8 | 1001.79
298.15 K, m1 = 0.1217 | 379.5 | 1002.51
298.15 K, m1 = 0.133 | 381.1 | 1003.01
298.15 K, m1 = 0.1455 | 382.4 | 1003.56
313.15 K, m1 = 0.03917 | 407.2 | –
313.15 K, m1 = 0.04565 | 409.1 | 994.219
313.15 K, m1 = 0.05555 | 410.8 | 994.65
313.15 K, m1 = 0.06371 | 410.7 | 995.007
313.15 K, m1 = 0.07398 | 410.7 | 995.463
313.15 K, m1 = 0.08191 | 408.9 | 995.809
313.15 K, m1 = 0.08959 | 408.6 | 996.143
313.15 K, m1 = 0.1002 | 409 | 996.596
328.15 K, m1 = 0.03787 | 430.2 | 987.321
328.15 K, m1 = 0.04577 | 430 | 987.659
328.15 K, m1 = 0.05585 | 431.2 | 988.092
328.15 K, m1 = 0.0626 | 431.6 | 988.383
328.15 K, m1 = 0.07189 | 432.4 | 988.783
328.15 K, m1 = 0.08069 | 430.4 | 989.147
328.15 K, m1 = 0.0903 | 429.9 | 989.565
328.15 K, m1 = 0.1056 | – | 990.212

CC(=O)NC(=O)[C@@H](N)Cc1ccc(O)cc1 [N-Acetyl-L-tyrosinamide]
Conditions | Normal melting temperature [°C]
[1] | 225

CC(=O)NC(=O)[C@@H](N)Cc1ccc(O)cc1 [N-Acetyl-L-tyrosinamide] + O
[2]
Conditions | apparent molar heat capacity [J/K/mol] | mass density [kg/m3]
288.15 K, m1 = 0.01175 | 508.1 | 999.692
288.15 K, m1 = 0.012 | 504.2 | 999.707
288.15 K, m1 = 0.01302 | 504.9 | 999.758
288.15 K, m1 = 0.01344 | 509 | 999.773
288.15 K, m1 = 0.01395 | 505.4 | 999.805
288.15 K, m1 = 0.01495 | 502.3 | 999.855
288.15 K, m1 = 0.01591 | 501.9 | 999.904
288.15 K, m1 = 0.01705 | 500.4 | 999.955
288.15 K, m1 = 0.0179 | 501.6 | 1000
288.15 K, m1 = 0.01902 | 503.4 | 1000.05
288.15 K, m1 = 0.01984 | 502.6 | 1000.1
298.15 K, m1 = 0.01196 | 517 | 997.637
298.15 K, m1 = 0.013 | 517.7 | 997.684
298.15 K, m1 = 0.01383 | 515.6 | 997.725
298.15 K, m1 = 0.01493 | 517 | 997.781
298.15 K, m1 = 0.01497 | – | 997.785
298.15 K, m1 = 0.01592 | 516.9 | 997.83
298.15 K, m1 = 0.017 | – | 997.885
298.15 K, m1 = 0.01809 | 519.4 | 997.94
298.15 K, m1 = 0.01905 | – | 997.984
298.15 K, m1 = 0.02018 | 511.5 | 998.035
313.15 K, m1 = 0.01197 | 542.3 | 992.782
313.15 K, m1 = 0.01299 | 543.8 | 992.827
313.15 K, m1 = 0.01401 | 543 | 992.874
313.15 K, m1 = 0.01501 | 545.3 | 992.925
313.15 K, m1 = 0.01596 | 546.3 | 992.967
313.15 K, m1 = 0.01693 | 541.4 | 993.013
313.15 K, m1 = 0.01787 | 543.5 | 993.057
313.15 K, m1 = 0.01892 | 542.6 | 993.101
328.15 K, m1 = 0.01201 | 553.5 | 986.242
328.15 K, m1 = 0.01295 | 552.2 | 986.289
328.15 K, m1 = 0.01394 | 549.9 | 986.33
328.15 K, m1 = 0.0149 | 556.4 | 986.378
328.15 K, m1 = 0.0159 | 554.4 | 986.421
328.15 K, m1 = 0.01694 | 552 | 986.462
328.15 K, m1 = 0.01796 | 555.6 | 986.514
328.15 K, m1 = 0.0189 | 555.1 | 986.548

CC(=O)N[C@@H](CC(N)=O)C(N)=O [(S)-2-acetamidosuccinamide]
Conditions | Normal melting temperature [°C]
[1] | 244
